tested on: HCI-002 (organoid from a triple-negative breast cancer xenograft); assay: CTG-3D luminescence at 96 h relative to day-0 seeding control (ratio to day 0); higher = more growth / less cytotoxicity; PDxO 3D drug screen, 96 h, CTG-3D normalised to day-0 seeding control.; details: 0.00025 µM; days in culture: 62

Structure (SMILES)	CTG-3D luminescence at 96 h
CC(C)n1nc(-c2ccc3oc(N)nc3c2)c2c(N)ncnc21 [sapanisertib]	2.68
Cc1nc(-c2cn3c(n2)-c2ccc(-c4cnn(C(C)(C)C(N)=O)c4)cc2OCC3)n(C(C)C)n1 [taselisib]	2.75
Cc1cc(Nc2ncnc3ccc(NC4=NC(C)(C)CO4)cc23)ccc1Oc1ccn2ncnc2c1 [tucatinib]	2.54
CS(=O)(=O)c1ccc(C(=O)Nc2ccc(Cl)c(-c3ccccn3)c2)c(Cl)c1 [vismodegib]	2.88
CNC(=O)c1cccc(-c2ccc3c(N4CCOC[C@@H]4C)nc(N4CCOC[C@@H]4C)nc3n2)c1 [vistusertib]	2.61

same assay, conditions: 0.00025 µM; days in culture: 82

Structure (SMILES)	CTG-3D luminescence at 96 h
CC(C)n1nc(-c2ccc3oc(N)nc3c2)c2c(N)ncnc21 [sapanisertib]	3.17
Cc1nc(-c2cn3c(n2)-c2ccc(-c4cnn(C(C)(C)C(N)=O)c4)cc2OCC3)n(C(C)C)n1 [taselisib]	2.9
Cc1cc(Nc2ncnc3ccc(NC4=NC(C)(C)CO4)cc23)ccc1Oc1ccn2ncnc2c1 [tucatinib]	3.27
CS(=O)(=O)c1ccc(C(=O)Nc2ccc(Cl)c(-c3ccccn3)c2)c(Cl)c1 [vismodegib]	3.52
CNC(=O)c1cccc(-c2ccc3c(N4CCOC[C@@H]4C)nc(N4CCOC[C@@H]4C)nc3n2)c1 [vistusertib]	2.8

same assay, conditions: 0.00025 µM; days in culture: 91

Structure (SMILES)	CTG-3D luminescence at 96 h
CC(C)n1nc(-c2ccc3oc(N)nc3c2)c2c(N)ncnc21 [sapanisertib]	3.41
Cc1nc(-c2cn3c(n2)-c2ccc(-c4cnn(C(C)(C)C(N)=O)c4)cc2OCC3)n(C(C)C)n1 [taselisib]	3.28
Cc1cc(Nc2ncnc3ccc(NC4=NC(C)(C)CO4)cc23)ccc1Oc1ccn2ncnc2c1 [tucatinib]	3.15
CS(=O)(=O)c1ccc(C(=O)Nc2ccc(Cl)c(-c3ccccn3)c2)c(Cl)c1 [vismodegib]	2.4
CNC(=O)c1cccc(-c2ccc3c(N4CCOC[C@@H]4C)nc(N4CCOC[C@@H]4C)nc3n2)c1 [vistusertib]	3.61

same assay, conditions: 0.00025 µM; days in culture: 191

Structure (SMILES)	CTG-3D luminescence at 96 h
CC(C)n1nc(-c2ccc3oc(N)nc3c2)c2c(N)ncnc21 [sapanisertib]	2.71
Cc1nc(-c2cn3c(n2)-c2ccc(-c4cnn(C(C)(C)C(N)=O)c4)cc2OCC3)n(C(C)C)n1 [taselisib]	2.45
Cc1cc(Nc2ncnc3ccc(NC4=NC(C)(C)CO4)cc23)ccc1Oc1ccn2ncnc2c1 [tucatinib]	2.43
CS(=O)(=O)c1ccc(C(=O)Nc2ccc(Cl)c(-c3ccccn3)c2)c(Cl)c1 [vismodegib]	3.25
CNC(=O)c1cccc(-c2ccc3c(N4CCOC[C@@H]4C)nc(N4CCOC[C@@H]4C)nc3n2)c1 [vistusertib]	2.8

same assay, conditions: 0.00025 µM; days in culture: 209

Structure (SMILES)	CTG-3D luminescence at 96 h
CC(C)n1nc(-c2ccc3oc(N)nc3c2)c2c(N)ncnc21 [sapanisertib]	2.26
Cc1nc(-c2cn3c(n2)-c2ccc(-c4cnn(C(C)(C)C(N)=O)c4)cc2OCC3)n(C(C)C)n1 [taselisib]	2.3
Cc1cc(Nc2ncnc3ccc(NC4=NC(C)(C)CO4)cc23)ccc1Oc1ccn2ncnc2c1 [tucatinib]	2.16
CS(=O)(=O)c1ccc(C(=O)Nc2ccc(Cl)c(-c3ccccn3)c2)c(Cl)c1 [vismodegib]	2.86
CNC(=O)c1cccc(-c2ccc3c(N4CCOC[C@@H]4C)nc(N4CCOC[C@@H]4C)nc3n2)c1 [vistusertib]	2.49

same assay, conditions: 0.00025 µM; days in culture: 227

Structure (SMILES)	CTG-3D luminescence at 96 h
CC(C)n1nc(-c2ccc3oc(N)nc3c2)c2c(N)ncnc21 [sapanisertib]	4.74
Cc1nc(-c2cn3c(n2)-c2ccc(-c4cnn(C(C)(C)C(N)=O)c4)cc2OCC3)n(C(C)C)n1 [taselisib]	5.28
Cc1cc(Nc2ncnc3ccc(NC4=NC(C)(C)CO4)cc23)ccc1Oc1ccn2ncnc2c1 [tucatinib]	5.28
CS(=O)(=O)c1ccc(C(=O)Nc2ccc(Cl)c(-c3ccccn3)c2)c(Cl)c1 [vismodegib]	4.4
CNC(=O)c1cccc(-c2ccc3c(N4CCOC[C@@H]4C)nc(N4CCOC[C@@H]4C)nc3n2)c1 [vistusertib]	5.55

same assay, conditions: 0.005 µM; days in culture: 62

Structure (SMILES)	CTG-3D luminescence at 96 h
CC(C)n1nc(-c2ccc3oc(N)nc3c2)c2c(N)ncnc21 [sapanisertib]	2.7
Cc1nc(-c2cn3c(n2)-c2ccc(-c4cnn(C(C)(C)C(N)=O)c4)cc2OCC3)n(C(C)C)n1 [taselisib]	2.69
Cc1cc(Nc2ncnc3ccc(NC4=NC(C)(C)CO4)cc23)ccc1Oc1ccn2ncnc2c1 [tucatinib]	3.08
CS(=O)(=O)c1ccc(C(=O)Nc2ccc(Cl)c(-c3ccccn3)c2)c(Cl)c1 [vismodegib]	3.64
CNC(=O)c1cccc(-c2ccc3c(N4CCOC[C@@H]4C)nc(N4CCOC[C@@H]4C)nc3n2)c1 [vistusertib]	3.41

same assay, conditions: 0.005 µM; days in culture: 82

Structure (SMILES)	CTG-3D luminescence at 96 h
CC(C)n1nc(-c2ccc3oc(N)nc3c2)c2c(N)ncnc21 [sapanisertib]	2.04
Cc1nc(-c2cn3c(n2)-c2ccc(-c4cnn(C(C)(C)C(N)=O)c4)cc2OCC3)n(C(C)C)n1 [taselisib]	2.23
Cc1cc(Nc2ncnc3ccc(NC4=NC(C)(C)CO4)cc23)ccc1Oc1ccn2ncnc2c1 [tucatinib]	2.09
CS(=O)(=O)c1ccc(C(=O)Nc2ccc(Cl)c(-c3ccccn3)c2)c(Cl)c1 [vismodegib]	2.41
CNC(=O)c1cccc(-c2ccc3c(N4CCOC[C@@H]4C)nc(N4CCOC[C@@H]4C)nc3n2)c1 [vistusertib]	2.5

same assay, conditions: 0.005 µM; days in culture: 91

Structure (SMILES)	CTG-3D luminescence at 96 h
CC(C)n1nc(-c2ccc3oc(N)nc3c2)c2c(N)ncnc21 [sapanisertib]	2.81
Cc1nc(-c2cn3c(n2)-c2ccc(-c4cnn(C(C)(C)C(N)=O)c4)cc2OCC3)n(C(C)C)n1 [taselisib]	2.4
Cc1cc(Nc2ncnc3ccc(NC4=NC(C)(C)CO4)cc23)ccc1Oc1ccn2ncnc2c1 [tucatinib]	2.38
CS(=O)(=O)c1ccc(C(=O)Nc2ccc(Cl)c(-c3ccccn3)c2)c(Cl)c1 [vismodegib]	2.04
CNC(=O)c1cccc(-c2ccc3c(N4CCOC[C@@H]4C)nc(N4CCOC[C@@H]4C)nc3n2)c1 [vistusertib]	3.38

same assay, conditions: 0.005 µM; days in culture: 191

Structure (SMILES)	CTG-3D luminescence at 96 h
CC(C)n1nc(-c2ccc3oc(N)nc3c2)c2c(N)ncnc21 [sapanisertib]	2.07
Cc1nc(-c2cn3c(n2)-c2ccc(-c4cnn(C(C)(C)C(N)=O)c4)cc2OCC3)n(C(C)C)n1 [taselisib]	2.55
Cc1cc(Nc2ncnc3ccc(NC4=NC(C)(C)CO4)cc23)ccc1Oc1ccn2ncnc2c1 [tucatinib]	2.47
CS(=O)(=O)c1ccc(C(=O)Nc2ccc(Cl)c(-c3ccccn3)c2)c(Cl)c1 [vismodegib]	3.31
CNC(=O)c1cccc(-c2ccc3c(N4CCOC[C@@H]4C)nc(N4CCOC[C@@H]4C)nc3n2)c1 [vistusertib]	3.06

same assay, conditions: 0.005 µM; days in culture: 209

Structure (SMILES)	CTG-3D luminescence at 96 h
CC(C)n1nc(-c2ccc3oc(N)nc3c2)c2c(N)ncnc21 [sapanisertib]	2.27
Cc1nc(-c2cn3c(n2)-c2ccc(-c4cnn(C(C)(C)C(N)=O)c4)cc2OCC3)n(C(C)C)n1 [taselisib]	2.09
Cc1cc(Nc2ncnc3ccc(NC4=NC(C)(C)CO4)cc23)ccc1Oc1ccn2ncnc2c1 [tucatinib]	2.08
CS(=O)(=O)c1ccc(C(=O)Nc2ccc(Cl)c(-c3ccccn3)c2)c(Cl)c1 [vismodegib]	2.57
CNC(=O)c1cccc(-c2ccc3c(N4CCOC[C@@H]4C)nc(N4CCOC[C@@H]4C)nc3n2)c1 [vistusertib]	2.32

same assay, conditions: 0.005 µM; days in culture: 227

Structure (SMILES)	CTG-3D luminescence at 96 h
CC(C)n1nc(-c2ccc3oc(N)nc3c2)c2c(N)ncnc21 [sapanisertib]	4.01
Cc1nc(-c2cn3c(n2)-c2ccc(-c4cnn(C(C)(C)C(N)=O)c4)cc2OCC3)n(C(C)C)n1 [taselisib]	4.54
Cc1cc(Nc2ncnc3ccc(NC4=NC(C)(C)CO4)cc23)ccc1Oc1ccn2ncnc2c1 [tucatinib]	4.84
CS(=O)(=O)c1ccc(C(=O)Nc2ccc(Cl)c(-c3ccccn3)c2)c(Cl)c1 [vismodegib]	3.59
CNC(=O)c1cccc(-c2ccc3c(N4CCOC[C@@H]4C)nc(N4CCOC[C@@H]4C)nc3n2)c1 [vistusertib]	5.27

same assay, conditions: 0.1 µM; days in culture: 62

Structure (SMILES)	CTG-3D luminescence at 96 h
CC(C)n1nc(-c2ccc3oc(N)nc3c2)c2c(N)ncnc21 [sapanisertib]	0.903
Cc1nc(-c2cn3c(n2)-c2ccc(-c4cnn(C(C)(C)C(N)=O)c4)cc2OCC3)n(C(C)C)n1 [taselisib]	2.06
Cc1cc(Nc2ncnc3ccc(NC4=NC(C)(C)CO4)cc23)ccc1Oc1ccn2ncnc2c1 [tucatinib]	2.78
CS(=O)(=O)c1ccc(C(=O)Nc2ccc(Cl)c(-c3ccccn3)c2)c(Cl)c1 [vismodegib]	3.26
CNC(=O)c1cccc(-c2ccc3c(N4CCOC[C@@H]4C)nc(N4CCOC[C@@H]4C)nc3n2)c1 [vistusertib]	2.32

same assay, conditions: 0.1 µM; days in culture: 82

Structure (SMILES)	CTG-3D luminescence at 96 h
CC(C)n1nc(-c2ccc3oc(N)nc3c2)c2c(N)ncnc21 [sapanisertib]	0.983
Cc1nc(-c2cn3c(n2)-c2ccc(-c4cnn(C(C)(C)C(N)=O)c4)cc2OCC3)n(C(C)C)n1 [taselisib]	2.39
Cc1cc(Nc2ncnc3ccc(NC4=NC(C)(C)CO4)cc23)ccc1Oc1ccn2ncnc2c1 [tucatinib]	2.6
CS(=O)(=O)c1ccc(C(=O)Nc2ccc(Cl)c(-c3ccccn3)c2)c(Cl)c1 [vismodegib]	2.65
CNC(=O)c1cccc(-c2ccc3c(N4CCOC[C@@H]4C)nc(N4CCOC[C@@H]4C)nc3n2)c1 [vistusertib]	2.33

same assay, conditions: 0.1 µM; days in culture: 91

Structure (SMILES)	CTG-3D luminescence at 96 h
CC(C)n1nc(-c2ccc3oc(N)nc3c2)c2c(N)ncnc21 [sapanisertib]	1.44
Cc1nc(-c2cn3c(n2)-c2ccc(-c4cnn(C(C)(C)C(N)=O)c4)cc2OCC3)n(C(C)C)n1 [taselisib]	2.4
Cc1cc(Nc2ncnc3ccc(NC4=NC(C)(C)CO4)cc23)ccc1Oc1ccn2ncnc2c1 [tucatinib]	2.79
CS(=O)(=O)c1ccc(C(=O)Nc2ccc(Cl)c(-c3ccccn3)c2)c(Cl)c1 [vismodegib]	2.06
CNC(=O)c1cccc(-c2ccc3c(N4CCOC[C@@H]4C)nc(N4CCOC[C@@H]4C)nc3n2)c1 [vistusertib]	2.8

same assay, conditions: 0.1 µM; days in culture: 191

Structure (SMILES)	CTG-3D luminescence at 96 h
CC(C)n1nc(-c2ccc3oc(N)nc3c2)c2c(N)ncnc21 [sapanisertib]	1.04
Cc1nc(-c2cn3c(n2)-c2ccc(-c4cnn(C(C)(C)C(N)=O)c4)cc2OCC3)n(C(C)C)n1 [taselisib]	2.13
Cc1cc(Nc2ncnc3ccc(NC4=NC(C)(C)CO4)cc23)ccc1Oc1ccn2ncnc2c1 [tucatinib]	2.5
CS(=O)(=O)c1ccc(C(=O)Nc2ccc(Cl)c(-c3ccccn3)c2)c(Cl)c1 [vismodegib]	3.23
CNC(=O)c1cccc(-c2ccc3c(N4CCOC[C@@H]4C)nc(N4CCOC[C@@H]4C)nc3n2)c1 [vistusertib]	2.32

same assay, conditions: 0.1 µM; days in culture: 209

Structure (SMILES)	CTG-3D luminescence at 96 h
CC(C)n1nc(-c2ccc3oc(N)nc3c2)c2c(N)ncnc21 [sapanisertib]	0.676
Cc1nc(-c2cn3c(n2)-c2ccc(-c4cnn(C(C)(C)C(N)=O)c4)cc2OCC3)n(C(C)C)n1 [taselisib]	1.75
Cc1cc(Nc2ncnc3ccc(NC4=NC(C)(C)CO4)cc23)ccc1Oc1ccn2ncnc2c1 [tucatinib]	2.02
CS(=O)(=O)c1ccc(C(=O)Nc2ccc(Cl)c(-c3ccccn3)c2)c(Cl)c1 [vismodegib]	2.3
CNC(=O)c1cccc(-c2ccc3c(N4CCOC[C@@H]4C)nc(N4CCOC[C@@H]4C)nc3n2)c1 [vistusertib]	2.03

same assay, conditions: 0.1 µM; days in culture: 227

Structure (SMILES)	CTG-3D luminescence at 96 h
CC(C)n1nc(-c2ccc3oc(N)nc3c2)c2c(N)ncnc21 [sapanisertib]	1.33
Cc1nc(-c2cn3c(n2)-c2ccc(-c4cnn(C(C)(C)C(N)=O)c4)cc2OCC3)n(C(C)C)n1 [taselisib]	3.54
Cc1cc(Nc2ncnc3ccc(NC4=NC(C)(C)CO4)cc23)ccc1Oc1ccn2ncnc2c1 [tucatinib]	4.86
CS(=O)(=O)c1ccc(C(=O)Nc2ccc(Cl)c(-c3ccccn3)c2)c(Cl)c1 [vismodegib]	4.14
CNC(=O)c1cccc(-c2ccc3c(N4CCOC[C@@H]4C)nc(N4CCOC[C@@H]4C)nc3n2)c1 [vistusertib]	3.89
